US20150181873A1, “HERBICIDE-RESISTANT SUNFLOWER PLANTS, POLYNUCLEOTIDES ENCODING HERBICIDE=RESISTANT ACETO HYDROXY ACID SYNTHASE LARGE SUBUNIT PROTEINS, AND METHODS OF USE” (NIDERA S.A., priority 2013, published 2015)

How the values were obtained:
Type in all cases: in vivo, Helianthus annuus
[1] = test system: Clearfield sunflower variety C; assay: Greenhouse spray injury rating, Clearfield variety C; conditions: imazapyr 240 gm ai/ha, scale 0-9
Excerpt: (§1) Sunflower lines S4897, Clearfield® sunflower varieties A, B, C and a conventional non-Clearfield variety were sprayed with three rates of imazamox (Raptor™), 100, 200 and 300 gm ai/ha plus 0.5% Sun It II and two rates of imazapyr (Arsenal™) 160 and 360 gm ai/ha plus 0.5% Sun It II when the plants were at the two to three leaf stage. Ratings were taken at 14 days after application (DAT) for injury. Injury was rated on a scale from 0 to 9 where 0=no injury to 9=dead plant. Twelve plants were sprayed per herbicide/rate treatment. Statistical analysis was conducted with STATGRAPHICS Plus 5.0 by using ANOVA and LSD procedures.
(§2) After plants were sprayed, it was realized that a height difference between S4897 and other sunflower varieties would have impacted the actual herbicide dose that was delivered. The spray boom height had been calibrated against S4897 and since the other varieties were taller and closer to the boom they would have received a greater dose of herbicide. Rates were recalibrated for the other varieties to determine the approximate dose they would have received. Assessments were made as presented in Table 2 since it was not possible to make a direct rate comparison due to the effect of the height. For example injury scores were compare for S4897 treated imazamox rate 100 gm ai/ha to the other varieties treated at 75 gm ai/ha. The treatment dose of 300 gm ai/ha for line S4897 was equivalent to the treatment of 200 gm ai/ha for the other varieties, which […].

[2] = test system: Conventional non-Clearfield sunflower variety; assay: Greenhouse spray injury rating, conventional variety; conditions: imazapyr 240 gm ai/ha, scale 0-9
Excerpt: as §1, §2

[3] = test system: sunflower hybrid TH9 (A205V); assay: Greenhouse imazapir dose response, TH9; conditions: 14 DAT
Protocol: (§3) A greenhouse study was conducted to quantify and contrast the imazapir sensivity of the mutants A122T and A205V in different genetic backgrounds at the whole plant level in sunflower. Seeds of the different sunflower lines that were used in this study were obtained under field conditions.
(§4) Seeds were sown in Petri dishes and, after germination, plantlets were transplanted to pots of 10 cm of diameter in a potting media consisting of equal parts of vermiculite, soil and sand. Plants were grown in a greenhouse under natural light conditions supplemented with 400 W sodium halide lamps to provide a 16 hrs daylength. Day/night temperatures were 25 and 20° C., respectively. At the V2 stage 10 plants of each genotype were randomly assigned to each treatment consisting of […] imazapir doses (0, 40, 80, 160, 240, 320, 400 and 480 g ai/ha), and a zero-time biomass determination. Experiment was arranged as a randomized block design with a full factorial (sunflower line×treatment) arrangement of treatments and 10 replications.
(§5) On the day of herbicide application ten plants of each genotype were cut at the cotyledonal node and dried at 60° C. for 48 hrs zero-time for dried weight determination. […] Height was determined as the distance between the cotyledonal node and the apex of each plant. For root biomass determination, each plant was taken from the pot and the potting media was washed out from the roots. Above ground biomass data from each line were converted to biomass accumulation after application by subtracting the appropriate average zero-time biomass from each sample. Dry biomass data were converted to percentages of the untreated control plants within each line to allow direct comparisons between groups.

[4] = test system: sunflower restorer line TH12 (A122T); assay: Greenhouse imazapir dose response, TH12; conditions: 14 DAT
Protocol: as §3, §4, §5

[5] = test system: sunflower line GM40 (A122T); assay: Greenhouse imazapir dose response, GM40; conditions: 14 DAT
Protocol: as §3, §4, §5

CC(C)C1(C)N=C(c2ncccc2C(=O)O)NC1=O (stereo not shown) [Imazapyr, imazapyr]
Injury at 14 DAT [1]: 4.9 c | Injury at 14 DAT [2]: 8.2 days | Phytotoxicity Index ([3]; 0.5x (40 g ai/ha)): 0 | biomass accumulation, % of untreated ([3]; 0.5x (40 g ai/ha)): 91.7% | plant height, % of untreated ([3]; 0.5x (40 g ai/ha)): 100.0% | root dry weight, % of untreated ([3]; 0.5x (40 g ai/ha)): 81.5% | Phytotoxicity Index ([3]; 1x (80 g ai/ha)): 0 | biomass accumulation, % of untreated ([3]; 1x (80 g ai/ha)): 81.7% | plant height, % of untreated ([3]; 1x (80 g ai/ha)): 100.0% | root dry weight, % of untreated ([3]; 1x (80 g ai/ha)): 84.9% | Phytotoxicity Index ([3]; 2x (160 g ai/ha)): 1.6 | biomass accumulation, % of untreated ([3]; 2x (160 g ai/ha)): 54.7% | plant height, % of untreated ([3]; 2x (160 g ai/ha)): 78.9% | root dry weight, % of untreated ([3]; 2x (160 g ai/ha)): 58.8% | Phytotoxicity Index ([3]; 3x (240 g ai/ha)): 5.1 | biomass accumulation, % of untreated ([3]; 3x (240 g ai/ha)): 35.7% | plant height, % of untreated ([3]; 3x (240 g ai/ha)): 50.0% | root dry weight, % of untreated ([3]; 3x (240 g ai/ha)): 34.1% | Phytotoxicity Index ([3]; 4x (320 g ai/ha)): 8.4 | biomass accumulation, % of untreated ([3]; 4x (320 g ai/ha)): 25.3% | plant height, % of untreated ([3]; 4x (320 g ai/ha)): 38.1% | root dry weight, % of untreated ([3]; 4x (320 g ai/ha)): 27.3% | Phytotoxicity Index ([3]; 5x (400 g ai/ha)): 8.9 | biomass accumulation, % of untreated ([3]; 5x (400 g ai/ha)): 19.8% | plant height, % of untreated ([3]; 5x (400 g ai/ha)): 31.8% | root dry weight, % of untreated ([3]; 5x (400 g ai/ha)): 29.9% | Phytotoxicity Index ([3]; 6x (480 g ai/ha)): 8.9 | biomass accumulation, % of untreated ([3]; 6x (480 g ai/ha)): 19.5% | plant height, % of untreated ([3]; 6x (480 g ai/ha)): 34.7% | root dry weight, % of untreated ([3]; 6x (480 g ai/ha)): 22.1% | Phytotoxicity Index ([4]; 0.5x (40 g ai/ha)): 0.0 | biomass accumulation, % of untreated ([4]; 0.5x (40 g ai/ha)): 100.0% | plant height, % of untreated ([4]; 0.5x (40 g ai/ha)): 100.0% | root dry weight, % of untreated ([4]; 0.5x (40 g ai/ha)): 99.4% | Phytotoxicity Index ([4]; 1x (80 g ai/ha)): 0.0 | biomass accumulation, % of untreated ([4]; 1x (80 g ai/ha)): 99.1% | plant height, % of untreated ([4]; 1x (80 g ai/ha)): 100.0% | root dry weight, % of untreated ([4]; 1x (80 g ai/ha)): 100% | Phytotoxicity Index ([4]; 2x (160 g ai/ha)): 0.0 | biomass accumulation, % of untreated ([4]; 2x (160 g ai/ha)): 97.0% | plant height, % of untreated ([4]; 2x (160 g ai/ha)): 101.8% | root dry weight, % of untreated ([4]; 2x (160 g ai/ha)): 100% | Phytotoxicity Index ([4]; 3x (240 g ai/ha)): 0.0 | biomass accumulation, % of untreated ([4]; 3x (240 g ai/ha)): 96.1% | plant height, % of untreated ([4]; 3x (240 g ai/ha)): 97.0% | root dry weight, % of untreated ([4]; 3x (240 g ai/ha)): 100.0% | Phytotoxicity Index ([4]; 4x (320 g ai/ha)): 0.0 | biomass accumulation, % of untreated ([4]; 4x (320 g ai/ha)): 84.3% | plant height, % of untreated ([4]; 4x (320 g ai/ha)): 92.1% | root dry weight, % of untreated ([4]; 4x (320 g ai/ha)): 74.5% | Phytotoxicity Index ([4]; 5x (400 g ai/ha)): 0.0 | biomass accumulation, % of untreated ([4]; 5x (400 g ai/ha)): 77.5% | plant height, % of untreated ([4]; 5x (400 g ai/ha)): 84.8% | root dry weight, % of untreated ([4]; 5x (400 g ai/ha)): 65.0% | Phytotoxicity Index ([4]; 6x (480 g ai/ha)): 0.5 | biomass accumulation, % of untreated ([4]; 6x (480 g ai/ha)): 70.7% | plant height, % of untreated ([4]; 6x (480 g ai/ha)): 79.8% | root dry weight, % of untreated ([4]; 6x (480 g ai/ha)): 57.8% | biomass accumulation, % of untreated ([5]; 0.5x (40 g ai/ha)): 96.5% | plant height, % of untreated ([5]; 0.5x (40 g ai/ha)): 99.6% | root dry weight, % of untreated ([5]; 0.5x (40 g ai/ha)): 100% | biomass accumulation, % of untreated ([5]; 1x (80 g ai/ha)): 94.1% | plant height, % of untreated ([5]; 1x (80 g ai/ha)): 97.4% | root dry weight, % of untreated ([5]; 1x (80 g ai/ha)): 100% | biomass accumulation, % of untreated ([5]; 2x (160 g ai/ha)): 97.6% | plant height, % of untreated ([5]; 2x (160 g ai/ha)): 95.2% | root dry weight, % of untreated ([5]; 2x (160 g ai/ha)): 100% | biomass accumulation, % of untreated ([5]; 3x (240 g ai/ha)): 95.8% | plant height, % of untreated ([5]; 3x (240 g ai/ha)): 93.0% | root dry weight, % of untreated ([5]; 3x (240 g ai/ha)): 92.2% | biomass accumulation, % of untreated ([5]; 4x (320 g ai/ha)): 88.3% | plant height, % of untreated ([5]; 4x (320 g ai/ha)): 93.0% | root dry weight, % of untreated ([5]; 4x (320 g ai/ha)): 96.1% | biomass accumulation, % of untreated ([5]; 5x (400 g ai/ha)): 85.6% | plant height, % of untreated ([5]; 5x (400 g ai/ha)): 93.9% | root dry weight, % of untreated ([5]; 5x (400 g ai/ha)): 84.2% | biomass accumulation, % of untreated ([5]; 6x (480 g ai/ha)): 76.8% | plant height, % of untreated ([5]; 6x (480 g ai/ha)): 84.3% | root dry weight, % of untreated ([5]; 6x (480 g ai/ha)): 74.3%
